Target: T1, human TRPV4 (Homo sapiens, UniProt Q9HBA0)
T1 construct: host or cells: tetracycline-inducible Flp-In T-REx 293 cells
Experiment: Hypotonicity-induced Ca2+ influx (Fluo-4, FDSS)
Assay type: cell-based
Method in brief: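 Flp-In T-REx 293 cells with tetracycline-induced human TRPV4, loaded with Fluo-4 for 60 min at 25 °C. Compound added 5 min before hypotonic mannitol/CaCl2 solution. Ca2+ signal recorded for 4.5 min on FDSS.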

[1] = Flp-In T-REx 293 cells expressing human TRPV4, examples listed under heading 'Human IC50<50 nM'
[2] = Flp-In T-REx 293 cells stably expressing human TRPV4, compounds listed by potency bin (<10 nM Tables 96-1/96-2, <3 nM Table 97)

T1 sequence (Q9HBA0 whole entry): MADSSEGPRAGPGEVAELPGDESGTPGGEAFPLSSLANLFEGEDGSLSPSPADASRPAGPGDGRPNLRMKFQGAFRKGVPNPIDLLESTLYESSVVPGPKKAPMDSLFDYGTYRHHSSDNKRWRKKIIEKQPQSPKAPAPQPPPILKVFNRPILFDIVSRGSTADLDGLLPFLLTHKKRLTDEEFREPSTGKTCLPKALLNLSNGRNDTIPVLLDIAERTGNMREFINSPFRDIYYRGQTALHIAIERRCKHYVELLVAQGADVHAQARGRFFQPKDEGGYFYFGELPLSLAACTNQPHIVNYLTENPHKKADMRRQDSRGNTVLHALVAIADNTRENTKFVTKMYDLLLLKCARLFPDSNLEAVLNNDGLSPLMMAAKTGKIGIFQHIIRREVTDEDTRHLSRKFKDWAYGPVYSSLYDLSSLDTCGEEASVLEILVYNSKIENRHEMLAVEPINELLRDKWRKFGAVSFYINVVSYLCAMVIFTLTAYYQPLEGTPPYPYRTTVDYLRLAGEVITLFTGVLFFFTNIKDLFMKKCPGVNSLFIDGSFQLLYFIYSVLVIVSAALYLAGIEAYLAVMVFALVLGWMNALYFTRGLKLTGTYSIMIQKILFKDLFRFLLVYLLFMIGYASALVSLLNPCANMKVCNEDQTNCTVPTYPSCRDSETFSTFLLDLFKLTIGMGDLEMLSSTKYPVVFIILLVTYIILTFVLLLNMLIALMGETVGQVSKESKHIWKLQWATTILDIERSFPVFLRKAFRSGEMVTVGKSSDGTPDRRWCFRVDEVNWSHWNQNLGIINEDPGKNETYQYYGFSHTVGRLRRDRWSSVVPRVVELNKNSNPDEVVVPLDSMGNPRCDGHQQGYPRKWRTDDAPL

SMILES	IC50 [1] [nM]	IC50 [2] [nM]
CC(C)c1cncc(C2(c3nc4c(c(=O)[nH]3)CN(C(=O)[C@H](O)c3cccc(-c5ccc(C(F)(F)F)nc5)c3)CC4)CC2)c1 [47-5]	< 50	< 10
O=C([C@H](O)c1cccc(C(F)(F)F)c1)N1CCCc2nc(C3(c4cccc(-c5ccc(CN6CCC(OCc7ccccc7)CC6)cc5)c4)CC3)[nH]c(=O)c2C1 [42-95]	< 50	< 10
Cc1cccc(-c2cccc(C3(c4nc5c(c(=O)[nH]4)CN(C(=O)[C@H](O)c4cccc(C(F)(F)F)c4)CCC5)CC3)c2)c1 [42-64]	< 50	< 10
CC(C)(C)c1cccc(-c2cccc(CC(=O)N3CCCc4nc(C5(c6cccc(Cl)c6)CC5)[nH]c(=O)c4C3)c2)c1 [57-6]	< 50	< 10
O=C(CN1CCc2ccccc21)N1CC=C(c2cccc(C3(c4nc5c(c(=O)[nH]4)CN(C(=O)[C@H](O)c4cccc(C(F)(F)F)c4)CCC5)CC3)c2)CC1 [42-74]	< 50	< 10
O=C([C@H](O)c1cccc(Cl)c1)N1CCCc2nc(C3(c4cccc(-c5ccc(C(F)(F)F)cc5)c4)CC3)[nH]c(=O)c2C1 [40-8]	< 50	< 10
O=C([C@H](O)c1cccc(-c2ccc(Cl)c(C(F)(F)F)c2)c1)N1CCc2nc(C3(c4ccccc4)CC3)[nH]c(=O)c2C1 [44-102]	< 50	< 3
O=C([C@H](O)c1cccc(-c2cccc(C3CC3)c2)c1)N1CCCc2nc(C3(c4ccccc4)CC3)[nH]c(=O)c2C1 [49-47]	< 50	< 10
Cc1ccc(-c2cccc(C3(c4nc5c(c(=O)[nH]4)CN(C(=O)[C@H](O)c4cccc(C(F)(F)F)c4)CCC5)CC3)c2)cc1 [42-57]	< 50	< 10
CC(C)c1csc(C2(c3nc4c(c(=O)[nH]3)CN(C(=O)[C@H](O)c3cccc(C(F)(F)F)c3)CCC4)CC2)c1 [18-1]	< 50	< 3
O=C([C@H](O)c1cccc(C(F)(F)F)c1)N1CCCc2nc(C3(c4cccc(-c5ccc(N6CCC(OCc7ccccc7)CC6)nc5)c4)CC3)[nH]c(=O)c2C1 [42-88]	< 50	< 3
N#Cc1cc(Cl)cc(-c2cccc(CC(=O)N3CCCc4nc(C5(c6cccc(Cl)c6)CC5)[nH]c(=O)c4C3)c2)c1 [17-119]	< 50	< 3
O=C([C@H](O)c1cccc(-c2cc(F)cc(Cl)c2)c1)N1CCCc2nc(C3(c4cccc(Cl)c4)CC3)[nH]c(=O)c2C1 [50-18]	< 50	< 3
O=C([C@H](O)c1cccc(-c2cc3ccccc3o2)c1)N1CCc2nc(C3(c4ccccc4)CC3)[nH]c(=O)c2C1 [44-84]	< 50	< 3
O=C(N1CCCc2nc(C3(c4ccccc4)CC3)[nH]c(=O)c2C1)C(F)(F)c1cccc(C(F)(F)F)c1 [20-1]	< 50	< 3
O=C(Cc1cccc(-c2ccccc2)c1)N1CCCc2nc(C3(c4cccc(Cl)c4)CC3)[nH]c(=O)c2C1 [17-84]	< 50	< 10
O=C(Cc1ccccc1OCc1ccccc1)N1CCCc2nc(C3(c4cccc(Cl)c4)CC3)[nH]c(=O)c2C1 [17-82]	< 50	< 10
O=C([C@H](O)c1cccc(C(F)(F)F)c1)N1CCCc2nc(C3(c4cccc(C5=CCN(CC(F)(F)F)CC5)c4)CC3)[nH]c(=O)c2C1 [42-81]	< 50	< 10
O=C(C(O)c1cccc(Oc2cccc(C(F)(F)F)c2)c1)N1CCc2nc(C3(c4ccccc4)CC3)[nH]c(=O)c2C1 (stereo not shown) [14-14]	< 50	

The next lines start with the values.

IC50 [1] [nM]	IC50 [2] [nM]	SMILES
< 50	< 10	O=C([C@H](O)c1cccc(-c2cccc(Cl)c2)c1)N1CCCc2nc(C3(c4cccc(-c5csc6ccccc56)c4)CC3)[nH]c(=O)c2C1 [52-11]
< 50	< 10	O=C(C(O)c1cccc(-c2cc(C(F)(F)F)ccc2Cl)c1)N1CCc2nc(C3(c4ccccc4)CC3)[nH]c(=O)c2C1 (stereo not shown) [44-13]
< 50		O=C(C(O)c1cccc(-c2ccc(C(F)(F)F)cc2)c1)N1CCc2nc(C3(c4ccccc4)CC3)[nH]c(=O)c2C1 (stereo not shown) [44-25]
< 50	< 10	O=C([C@H](O)c1cccc(-c2cc(Cl)ccc2Cl)c1)N1CCCc2nc(C3(c4ccccc4)CC3)[nH]c(=O)c2C1 [49-43]
< 50		O=C(c1csc(C2(c3nc4c(c(=O)[nH]3)CN(C(=O)[C@H](O)c3cccc(C(F)(F)F)c3)CCC4)CC2)c1)N1Cc2ccccc2C1 [59-4]
< 50	< 10	O=C(C(O)c1cccc(-c2cccc(C(F)(F)F)n2)c1)N1CCc2nc(C3(c4ccccc4)CC3)[nH]c(=O)c2C1 (stereo not shown) [44-4]
< 50		CC(C)(C)c1cccc(C(O)C(=O)N2CCc3nc(C4(c5cccs5)CC4)[nH]c(=O)c3C2)c1 (stereo not shown) [15-17]
< 50	< 3	O=C([C@H](O)c1cccc(C(F)(F)F)c1)N1CCCc2nc(C3(c4cccc(-c5ccnc(C(F)(F)F)c5)c4)CC3)[nH]c(=O)c2C1 [42-48]
< 50		O=C([C@H](O)c1cccc(-c2cncc(C(F)(F)F)c2)c1)N1CCc2nc(C3(c4ccccc4)CC3)[nH]c(=O)c2C1 [44-92]
< 50	< 3	CC(c1cccc(C2(c3nc4c(c(=O)[nH]3)CN(C(=O)[C@H](O)c3cccc(C(F)(F)F)c3)CCC4)CC2)c1)C(F)(F)F (stereo partly shown) [31-4]
< 50	< 3	O=C([C@H](O)c1cccc(-c2cnc3ccccc3c2)c1)N1CCc2nc(C3(c4ccccc4)CC3)[nH]c(=O)c2C1 [44-81]
< 50	< 10	O=C([C@H](O)c1cccc(C(F)(F)F)c1)N1CCCc2nc(C3(c4cccs4)CC3)[nH]c(=O)c2C1 [18-9]
< 50	< 10	CC(C)c1cncc(C2(c3nc4c(c(=O)[nH]3)CN(C(=O)C(O)c3cccc(C(C)(C)C)c3)CCC4)CC2)c1 (stereo not shown) [19-4]
< 50	< 10	O=C(Cc1cccc(-c2cccc(Cl)c2)c1)N1CCc2nc(C3(c4cccc(C5CCCCC5)c4)CC3)[nH]c(=O)c2C1 [27-7]
< 50	< 10	O=C([C@H](O)c1cccc(C(F)(F)F)c1)N1CCCc2nc(C3(c4cccc(C5CCOCC5)c4)CC3)[nH]c(=O)c2C1 [31-7]
< 50	< 10	O=C(Cc1cccc2ccccc12)N1CCCc2nc(C3(c4cccc(Cl)c4)CC3)[nH]c(=O)c2C1 [17-120]
< 50	< 3	O=C([C@H](O)c1cccc(Cl)c1)N1CCCc2nc(C3(c4cccc(-c5cnsc5)c4)CC3)[nH]c(=O)c2C1 [40-2]
< 50		O=C([C@H](O)c1cccc(-c2cccc(Cl)c2Cl)c1)N1CCc2nc(C3(c4ccccc4)CC3)[nH]c(=O)c2C1 [44-109]
< 50	< 10	O=C([C@H](O)c1cccc(-c2cc(Cl)cc(Cl)c2)c1)N1CCc2nc(C3(c4ccccc4)CC3)[nH]c(=O)c2C1 [44-100]
